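Following 48 hours of exposure in 96-well plates, responses at five concentrations were used to interpolate endpoints linearly. Here, GI50 denotes the concentration required for 50% inhibition of growth.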 Active and inactive are the calls of the source. Rule as the data show it: active = GI50 up to about 1.1 µM and inactive = higher.
How the values were obtained:
Test in all cases: DTP human tumour cell line panel, 48 h
SK-OV-3 = tested on: SK-OV-3
UO-31 = tested on: UO-31
NCI-H23 = tested on: NCI-H23
UACC-257 = tested on: UACC-257
HT-29 = tested on: HT-29
A549 = tested on: A549
SK-MEL-2 = tested on: SK-MEL-2
SK-MEL-28 = tested on: SK-MEL-28
SW-620 = tested on: SW-620
SF-295 = tested on: SF-295
DMS-114 = tested on: DMS-114
SN12C = tested on: SN12C
786-0 = tested on: 786-0
MOLT-4 = tested on: MOLT-4
KM12 = tested on: KM12
KM-20L2 = tested on: KM-20L2
OVCAR-4 = tested on: OVCAR-4
MCF7 = tested on: MCF7
SR = tested on: SR

Measured: GI50

CC(=O)NS(=O)(=O)c1ccc(NC(=O)COC(=O)c2cccc3c(=O)c4ccccc4[nH]c23)cc1
inactive: SK-OV-3 > 100 µM | UO-31 > 100 µM | NCI-H23 > 100 µM | UACC-257 > 100 µM | HT-29 > 100 µM | A549 > 100 µM | SK-MEL-2 > 100 µM | SK-MEL-28 > 100 µM | SW-620 > 100 µM | SF-295 > 100 µM | DMS-114 > 100 µM | SN12C > 100 µM | 786-0 > 100 µM | MOLT-4 > 100 µM | KM12 > 100 µM

CCOC(=O)C(=Cc1cc(OC)ccc1OC)C(=O)OCC
inactive: SK-OV-3 15.8 µM | KM-20L2 2.21 µM | NCI-H23 3.03 µM | HT-29 3.85 µM | A549 6.3 µM | SK-MEL-2 4.75 µM | SK-MEL-28 4.71 µM | SW-620 3.52 µM | SF-295 12.4 µM | DMS-114 2.81 µM | SN12C 5.27 µM | OVCAR-4 7.89 µM | 786-0 3.56 µM | MOLT-4 5.89 µM | KM12 6.53 µM

NC1C[C@H](n2cc(/C=C/Br)c(=O)[nH]c2=O)C[C@@H]1CO (stereo partly specified)
inactive: SK-OV-3 > 100 µM | UO-31 > 100 µM | KM-20L2 > 100 µM | NCI-H23 > 100 µM | UACC-257 > 100 µM | HT-29 > 100 µM | SK-MEL-28 > 100 µM | SF-295 > 100 µM | DMS-114 > 100 µM | SN12C > 100 µM | OVCAR-4 > 100 µM | 786-0 > 100 µM | MOLT-4 > 100 µM

Cc1nc2ccccc2c(=O)n1/N=C(\N=N\c1ccc(Cl)cc1)c1cccc(-c2ccco2)c1
inactive: SK-OV-3 30.3 µM | UO-31 14.1 µM | KM-20L2 27.3 µM | NCI-H23 21.6 µM | HT-29 34.3 µM | A549 40.6 µM | SK-MEL-28 16.8 µM | SW-620 42.5 µM | SF-295 48.5 µM | SN12C 29.2 µM | 786-0 39.6 µM | MOLT-4 22.4 µM

Cn1c(=S)c2nc(SCc3cccnc3)[nH]c2n(C)c1=O
inactive: SK-OV-3 > 100 µM | UO-31 > 100 µM | NCI-H23 > 100 µM | MCF7 > 100 µM | UACC-257 > 100 µM | HT-29 > 100 µM | A549 > 100 µM | SK-MEL-2 > 100 µM | SK-MEL-28 > 100 µM | SR > 100 µM | SW-620 > 100 µM | SF-295 97.7 µM | SN12C > 100 µM | OVCAR-4 > 100 µM | 786-0 > 100 µM | MOLT-4 > 100 µM | KM12 > 100 µM

COC(=O)CC1(O)C(C=C(C)C)C(C(=O)OC)C(=O)C(C(=O)OC)C1C(=O)OC (stereo unspecified)
inactive: SK-OV-3 > 100 µM | UO-31 > 100 µM | NCI-H23 > 100 µM | MCF7 > 100 µM | UACC-257 > 100 µM | HT-29 > 100 µM | A549 > 100 µM | SK-MEL-2 > 100 µM | SK-MEL-28 > 100 µM | SR > 100 µM | SW-620 > 100 µM | SF-295 > 100 µM | SN12C > 100 µM | OVCAR-4 > 100 µM | 786-0 > 100 µM | MOLT-4 > 100 µM | KM12 > 100 µM

Cc1n[nH]c(=O)n1/N=C/c1cccnc1
inactive: SK-OV-3 > 100 µM | UO-31 > 100 µM | NCI-H23 > 100 µM | MCF7 > 100 µM | UACC-257 > 100 µM | HT-29 > 100 µM | A549 > 100 µM | SK-MEL-2 > 100 µM | SK-MEL-28 > 100 µM | SR > 100 µM | SW-620 > 100 µM | SF-295 > 100 µM | SN12C > 100 µM | OVCAR-4 > 100 µM | 786-0 > 100 µM | MOLT-4 > 100 µM | KM12 > 100 µM

— ChEMBL document CHEMBL1201862, “PubChem BioAssay data set” (2004)
